Our source for the TGI and GI50 values is PubChem BioAssay (NCI).

Several values for one entry are separate records, joined by “and”; a condition that tells them apart may be missing. Equal entries are not always repeated.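 Grown in 96-well plates, cells were treated for 48 hours with each compound at five concentrations. Insufficient inhibition: endpoint recorded as highest concentration tested. Abbreviation: GI50, concentration required for 50% inhibition of growth. TGI denotes the concentration required for complete inhibition of growth.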 Where only a bound is given, the exact number is not on record here.

Some test systems named below: SNB-75 CNS; SK-MEL-2 melanoma; OVCAR-3 ovarian; KM12 colon; OVCAR-4 ovarian; NCI-H522 lung; K-562 leukemia; A549 NSCLC; DU-145 prostate; LOX IMVI melanoma.
Holding throughout (assay): NCI-60 cell line screen, 48 h

For `COc1cc(C)c(CC/C(C)=C/Cc2cc(O)ccc2O)c(C)c1C`, the TGI in the test with SNB-75 CNS, in the test with SK-MEL-2 melanoma, in the test with OVCAR-3 ovarian, in the test with KM12 colon, in the test with OVCAR-4 ovarian and with NCI-H522 lung was greater than 25 µM each time. Besides, the TGI in the test with K-562 leukemia and in the test on A549 NSCLC was greater than 25 µM each time.
In the case of `C[C@@H]1CC[C@@]2(C)C(C(=O)O)=CCCC2[C@@]1(C)CC(=O)c1ccoc1` (stereo partly specified), the TGI in the test with SNB-75 CNS, in the test with SK-MEL-2 melanoma, in the test on OVCAR-3 ovarian, in the test with KM12 colon, with DU-145 prostate and with OVCAR-4 ovarian was greater than 25 µM each time. For the same compound, the TGI in the test with LOX IMVI melanoma, in the test on NCI-H522 lung and in the test on A549 NSCLC was greater than 25 µM throughout.
Consider `CCCCCCCCCCCCCCCCCCOc1ccccc1CC(=O)NCC[N+]1(C)CCOCC1`, for which the GI50 in the test with SK-MEL-2 melanoma was 13.9 µM; with OVCAR-3 ovarian, 4.43 µM; with OVCAR-4 ovarian, 6.42 µM; with LOX IMVI melanoma it was 3.51 µM; with NCI-H522 lung it was 1.95 µM; with A549 NSCLC, 4.39 µM. The TGI in the test with SK-MEL-2 melanoma was found to be 34.6 µM; in the test on OVCAR-3 ovarian, 34.2 µM; in the test on OVCAR-4 ovarian, 23.3 µM; in the test on LOX IMVI melanoma, 42.4 µM; in the test on NCI-H522 lung it was 5.05 µM; with A549 NSCLC, 26.3 µM.
For `CN(C)c1nc(Oc2nc(N(C)C)nc(N(C)C)n2)nc(N(C)C)n1`, the TGI with SNB-75 CNS, with SK-MEL-2 melanoma, in the test with OVCAR-3 ovarian, in the test with KM12 colon, with OVCAR-4 ovarian and in the test on LOX IMVI melanoma was greater than 100 µM throughout. Further, the TGI with NCI-H522 lung, in the test on K-562 leukemia and in the test on A549 NSCLC was greater than 100 µM each time.
`CN(C)C(=O)C(F)(F)C(c1ccc(F)cc1)C1C(=O)N(C)C(=O)N(C)C1=O` (stereo unspecified): the TGI in the test on SNB-75 CNS, in the test with SK-MEL-2 melanoma, with OVCAR-3 ovarian, with KM12 colon, with DU-145 prostate and with OVCAR-4 ovarian was greater than 100 µM each time. The TGI in the test with LOX IMVI melanoma and with A549 NSCLC was greater than 100 µM each time.
On to `Cc1nc2ccccc2nc1CC(=O)C(=O)Nc1ccc(Cl)cc1Cl`, for which the TGI in the test on SNB-75 CNS, in the test on SK-MEL-2 melanoma, in the test on OVCAR-3 ovarian, with KM12 colon, in the test with OVCAR-4 ovarian and in the test with LOX IMVI melanoma was greater than 100 µM each time. Further, the TGI in the test with NCI-H522 lung, with K-562 leukemia and with A549 NSCLC was greater than 100 µM each time.
In the case of `c1ccc(-c2c(-c3ccccc3)[n+](Cc3ccc4ccccc4c3)c(-c3ccc(-c4nc5ccccc5s4)cc3)n2Cc2ccc3ccccc3c2)cc1`, the GI50 in the test with SNB-75 CNS is 0.201 µM; with OVCAR-3 ovarian, 0.0814 µM; in the test with KM12 colon, 0.13 µM; in the test on DU-145 prostate, 0.262 µM; in the test with OVCAR-4 ovarian, 0.0486 µM; with K-562 leukemia, 0.0945 µM. Further, the GI50 in the test with A549 NSCLC is 0.176 µM. In addition, the TGI came to 0.895 µM with SNB-75 CNS; 0.626 µM in the test with OVCAR-3 ovarian; 0.336 µM with KM12 colon; 1.03 µM in the test on DU-145 prostate; 1.12 µM in the test on OVCAR-4 ovarian; 3.79 µM with K-562 leukemia. The compound also came in with a TGI with A549 NSCLC of 1.55 µM.
Consider `CCOC(=O)/C=C/c1nc(C#N)c(N)o1`, for which the TGI in the test with SNB-75 CNS, in the test with SK-MEL-2 melanoma, in the test with KM12 colon, with DU-145 prostate, with LOX IMVI melanoma and in the test on K-562 leukemia was greater than 100 µM in each case. In the test on A549 NSCLC, the TGI is greater than 100 µM.
With `Nc1ncnc2c1nnn2C1C=CC(CP(=O)(O)O)C1` (stereo unspecified), the TGI with SK-MEL-2 melanoma, in the test on OVCAR-3 ovarian, in the test on KM12 colon, with DU-145 prostate, in the test on OVCAR-4 ovarian and in the test with LOX IMVI melanoma was greater than 100 µM in each case. In the test on A549 NSCLC, this compound registered a TGI greater than 100 µM.
Take `[N-]=[N+]=CC(=O)C1CCCN1C(=O)c1ccccc1` (stereo unspecified): the TGI was 8.26 µM in the test on SNB-75 CNS; greater than 10 µM in the test on SK-MEL-2 melanoma; greater than 10 µM in the test with OVCAR-3 ovarian; greater than 10 µM in the test on KM12 colon; greater than 10 µM in the test on DU-145 prostate; greater than 10 µM with OVCAR-4 ovarian. For the same compound, the TGI in the test with LOX IMVI melanoma, in the test with K-562 leukemia and in the test with A549 NSCLC was greater than 10 µM each time.
With `C[C@]12CCC3[C@@H](CCC45OC4C(=O)CC[C@]35C)C1Cc1cnn(-c3ccc(F)cc3)c1N2` (stereo partly specified), the TGI in the test with SNB-75 CNS was greater than 100 µM; with SK-MEL-2 melanoma it was greater than 100 µM; in the test on KM12 colon, 55.1 µM; in the test with LOX IMVI melanoma, 31.9 µM; in the test with NCI-H522 lung, 34.8 µM; with K-562 leukemia, 66.8 µM. This compound displayed a TGI in the test on A549 NSCLC greater than 100 µM.
Take `O=[N+]([O-])c1cccc(C2=NN(c3ccccc3)C3c4cc(Br)ccc4OCC23)c1` (stereo unspecified): the TGI with SNB-75 CNS, with SK-MEL-2 melanoma, with OVCAR-3 ovarian, with KM12 colon, in the test on LOX IMVI melanoma and in the test with NCI-H522 lung was greater than 100 µM throughout. In addition, the TGI in the test with K-562 leukemia and in the test on A549 NSCLC was greater than 100 µM in each case.
For `O=[N+]([O-])c1ccc(C[P+]2(c3ccccc3)CCCCC2)cc1`, the TGI with SNB-75 CNS, in the test on SK-MEL-2 melanoma, with OVCAR-3 ovarian, in the test on KM12 colon, with LOX IMVI melanoma and in the test on NCI-H522 lung was greater than 100 µM in each case. For the same compound, the TGI in the test on K-562 leukemia and with A549 NSCLC was greater than 100 µM each time.
Consider `Cc1c2ccnc(C(N)=O)c2c(C)c2c1[nH]c1ccccc12`, for which the GI50 with SNB-75 CNS is 13.8 µM; in the test on SK-MEL-2 melanoma it was 9.86 µM; in the test with OVCAR-3 ovarian, 5.94 µM; with KM12 colon it was 0.651 µM; with OVCAR-4 ovarian, 7.56 µM; in the test with K-562 leukemia, 3.9 µM. Also, the GI50 in the test on A549 NSCLC was 3.28 µM. The TGI in the test with SNB-75 CNS is 24.6 µM and 39.9 µM; in the test with SK-MEL-2 melanoma it was 37.5 µM and 44.1 µM; with OVCAR-3 ovarian, 34.8 µM and 32.1 µM; in the test with KM12 colon, 47.2 µM and 56.1 µM; with OVCAR-4 ovarian, 29.7 µM and 93.7 µM; with LOX IMVI melanoma it was 21.2 µM. Besides, the TGI is 31.6 µM in the test on NCI-H522 lung; 48.2 µM and > 100 µM in the test on K-562 leukemia; 37.1 µM and 15.8 µM with A549 NSCLC.
